Test results as given in patent publication US10314885B2, “Oxytocin treatment to modify blood glucose and treat metabolic disease” (The Regents of the University of California, priority 2010, dated 2019).
Marks after values point to notes of the source that are not given here.

Experiments:
Type in all cases: in vivo, human
[1] = system: Subjects with a DSM-IV diagnosis of schizophrenia; assay: Letter Number Sequencing subtest (LNS) of WAIS-III; conditions: after 3 weeks of intranasal oxytocin
Text: (§1) Participants. Subjects with a DSM-IV diagnosis of schizophrenia, confirmed by SCID interview, were enrolled in a double-blind, placebo-controlled, crossover study. Other main inclusion criteria were: minimum 18 years of age, treatment with 1 or 2 approved antipsychotic medication with no dose changes in the previous four weeks, a minimum Positive and Negative Syndrome Scale (PANSS) score of at least 55 with a minimum score of 4 and a Clinical Global Impressions-Severity (CGI-S) scale score of at least 4 (moderately ill) at randomization.
Study Drugs. Subjects were maintained on a stable dose of their pre-study antipsychotic medication regimen. In addition to their antipsychotics, subjects received 3-weeks of daily intranasal oxytocin (Syntocinin, Novartis, Basel Switzerland) dosed 20 IU twice a day for the first week and then 40 IU twice a day for weeks two and three, and 3-weeks of daily intranasal placebo. […]
The Letter Number Sequencing subtest (LNS) is a component of the larger WAIS-III and is used to measure attention and working memory. […] In each trial of the LNS, a list of letters and numbers are read in a mixed order to participants; participants are asked to recall first the digits and then the letters in the order they were presented. […] Scores are calculated by totaling the correct responses for each length. […]

[2] = system: Subjects with a DSM-IV diagnosis of schizophrenia; assay: California Verbal Learning Test (CVLT-II)
Text: as §1
Study Drugs. Subjects were maintained on a stable dose of their pre-study antipsychotic medication regimen. In addition to their antipsychotics, subjects received 3-weeks of daily intranasal oxytocin (Syntocinin, Novartis, Basel Switzerland) dosed 20 IU twice a day for the first week and then 40 IU twice a day for weeks two and three, and 3-weeks of daily intranasal placebo. Order of treatment (placebo-oxytocin or oxytocin-placebo) was randomly assigned using a computer generated random sequence.
Safety and efficacy assessments. Subjects, raters, and study staff enrolling patients were blinded to treatment condition. The total study duration for each individual subject was 7 weeks, which included a baseline visit (V1), a three-week initial treatment period, a 1 week washout (between V4 and V5), a repeat baseline visit, and a three-week crossover treatment period. Subjects received the cognitive tests a total of 3 times: at baseline visits (V1, and after 3 weeks of treatment with placebo and oxytocin (V4, V7).
The CVLT-II is a commonly-used test of new learning and declarative verbal memory, which closely resembles the HVLT (Hopkins Verbal Learning Test), a part of the standardized MATRICS cognitive battery, now used to measure cognitive changes in Schizophrenia clinical trials. In the CVLT-II, lists of 16 words (List A) from various semantic categories are read over 5 trials. After each trial, subject is asked to recall as many words as they can (free recall). An interference list (List B) is then presented. Free and cued recall of List A is measured immediately following (short delay) and 20 minutes (long delay). At the end of the test, a 44 word recognition task is performed with subjects identifying target words among 28 distractors. The CVLT's format allows assessment of multiple aspects of cognition: overall recall ability, rate of learning over sequential trials, ability to retain learned material, and item recognition.
For each subtest a two-factor repeated ANOVA with drug treatment (placebo/oxytocin) and order of treatment as factors was conducted.

[3] = Blood chemistry analysis and urine osmolality at endpoint
Protocol: (§2) Study Drugs. Subjects were maintained on their pre-study antipsychotic medication regimen and doses were not changed during the study. Subjects received 3-weeks of daily intranasal oxytocin (Syntocinin, Novartis, Basel Switzerland) and 3-weeks of daily intranasal placebo. Oxytocin was dosed at 20 IU (5 sprays) twice a day for the first week and 40 IU (10 sprays) twice a day thereafter. Order of treatment (placebo-oxytocin or oxytocin-placebo) was randomly assigned using a computer generated random sequence.
(§3) Safety was assessed at each visit by a medical exam, and assessments of reported adverse events. In addition, urine was collected for osmolality testing and blood was drawn at each visit and analyzed at UCSD laboratories for basic chemistry analysis. Statistical Methods. Data from all subjects who received at least one dose and one assessment in both treatment periods (intent-to-treat population) were subjected to analysisusing SPSS version 11.0. Baseline scores for both drug treatments were compared for similarity using paired t-test. The change in baseline scores from period 1 to period 2 was compared among the placebo-oxytocin versus oxytocin-placebo group using a two-sample t-test to assess for period carry-over effects. PANNS and CGI data were subjected to repeated measures ANOVA with drug and treatment-week as repeated measures factors. Treatment sequence was included as a between-subjects factor to evaluate possible period and carry-over effects. Paired t-tests, corrected for multiple-comparisons using Bonferoni method were used to compare placebo and oxytocin scores at endpoint and each the other assessment visits. Cohen's d statistic was calculated for each measure at endpoint.

[4] = system: Subjects with a DSM-IV diagnosis of schizophrenia; assay: PANSS and CGI efficacy assessment, double-blind placebo-controlled crossover study of adjunctive intranasal oxytocin; conditions: for CGI-Severity score: Baseline of oxytocin arm (CGI-Severity, not CGI-Improvement); for CGI-I Cohen's d / PANSS Negative Cohen's d / PANSS Total Cohen's d: Week 3, oxytocin vs placebo; for PANSS Total Cohen's d: 0.2 small, 0.5 medium, 0.8 large
Text: as §1, with “in this” for “in a”, “weeks,” for “weeks, a minimum”, “55” for “55 with a minimum score of 4”, “randomization. Because it was hypothesized that oxytocin may improve paranoia due to its pro-trust effect, subjects were also required to have a score of at least 4 (moderate) on item 6 (suspiciousness/persecution) of the PANSS. This study was approved by the UCSD IRB and written informed consent was obtained from all subjects.” for “randomization.”
as §2
Efficacy and Safety assessments. Subjects, raters and study staff enrolling patients were blinded to treatment condition. The total study duration for each individual subject was 7 weeks. Subjects were evaluated […]. Visit 1 and 5 were baseline assessments and visits 2, 3, 4 and 6, 7, 8 were the weekly visits for the two treatment periods, respectively. Washout occurred in the week between visit 4 and 5. At each visit raters assessed subjects utilizing the PANSS, CGI-S and CGI-Improvement (CGI-I). PANSS-total at the final visit of each treatment period was chosen a′ priori as the primary efficacy endpoint.
as §3

[5] = system: Subjects with a DSM-IV diagnosis of schizophrenia; assay: Reported adverse events in the crossover study
Protocol: as §2, §3

[6] = after 3 weeks of intranasal oxytocin, Mean (S.E.M.)
[7] = Baseline of oxytocin arm, mean (SD)
[8] = Week 1, intranasal 20 IU twice a day, mean (SD)
[9] = Week 2, intranasal 40 IU twice a day, mean (SD)
[10] = Week 3, intranasal 40 IU twice a day, mean (SD)
[11] = 3 weeks intranasal oxytocin, 15 completers

CC[C@H](C)[C@@H]1NC(=O)[C@H](Cc2ccc(O)cc2)NC(=O)[C@@H](N)CSSC[C@@H](C(=O)N2CCC[C@H]2C(=O)N[C@@H](CC(C)C)C(=O)NCC(N)=O)NC(=O)[C@H](CC(N)=O)NC(=O)[C@H](CCC(N)=O)NC1=O [Oxytocin, Cys-Tyr-Ile-Gln-Asn-Cys-Pro-Leu-Gly]
scores on the LNS, oxytocin versus placebo [1]: no significant difference
CVLT Long Delay Cued Recall Raw [2, 6]: 11.87 (0.97)
CVLT Long Delay Free Recall Raw [2, 6]: 10.87 (0.87)
CVLT Short Delay Cued Recall Raw [2, 6]: 12.00 (0.79)
CVLT Short Delay Free Recall Raw [2, 6]: 10.60 (1.03)
CVLT Total Intrusions Raw [2, 6]: 4.93 (1.90)
CVLT Total Recall Discriminability Raw [2, 6]: 2.22 (0.19)
CVLT Total Recognition Discriminability Raw [2, 6]: 2.97 (0.28)
CVLT Total Repetitions Raw [2, 6]: 13.67 (5.44)
CVLT Trials 1-5 Raw [2, 6]: 55.67 (3.65)
CVLT subscale scores, oxytocin versus placebo ([2]; all 9 subscales, after 3 weeks): scored higher
measured blood chemistry or urine osmolality, oxytocin versus placebo ([3]; at endpoint): no significant differences
BUN ([3]; blood, at endpoint): 10.8 mg/dL
Bicarb. ([3]; blood, at endpoint): 27.9 mmol/L
Calcium ([3]; blood, at endpoint): 9.3 mg/dL
Chloride ([3]; blood, at endpoint): 101.1 mmol/L
Creatinine ([3]; blood, at endpoint): 0.9 mg/dL
Potassium ([3]; blood, at endpoint): 4.4 mmol/L
Sodium ([3]; blood, at endpoint): 138.5 mmol/L
Glucose ([3]; blood, at endpoint (week 3)): 112.5 mg/dL
blood glucose levels compared to placebo ([3]; intranasal administration): reduction in blood glucose levels
Urine Osmolality ([3]; urine, at endpoint): 607.9 mOsm/kg
reduction on the PANSS-total ([4]; 3 weeks of treatment vs baseline (placebo 3.0 points)): 7.9 point
CGI-Severity score ([4]; mean (SD)): 4.67 (0.61)^
CGI-Severity score ([4]; mean (SD), listed as oxytocin): 4.67±0.74
PANSS Gen. Psy. score [4, 7]: 38.8 (7.6)
PANSS Negative score [4, 7]: 20.2 (4.7)
PANSS Positive score [4, 7]: 21.7 (4.1)
PANSS Total score ([4]; Baseline of oxytocin arm, mean (standard deviation)): 81.5 (12.4)
PANSS Total score ([4]; Baseline of oxytocin arm, mean (standard deviation), listed as oxytocin): 81.4±12.43
PANSS Total score ([4]; Week 1, intranasal 20 IU twice a day, adjunctive to antipsychotics, mean (SD)): 76.3 (11.3)
CGI-I score [4, 8]: 3.33 (0.62)
PANSS Gen. Psy. score [4, 8]: 36.4 (8.1)
PANSS Negative score [4, 8]: 20.1 (4.8)
PANSS Positive score [4, 8]: 20.6 (4.5)
PANSS Total score ([4]; Week 2, intranasal 40 IU twice a day, adjunctive to antipsychotics, mean (SD)): 76.9 (13.2)
CGI-I score [4, 9]: 3.33 (1.20)
PANSS Gen. Psy. score [4, 9]: 36.3 (8.2)
PANSS Negative score [4, 9]: 19.7 (4.3)
PANSS Positive score [4, 9]: 20.5 (4.6)
PANSS Total score ([4]; Week 3 (endpoint), intranasal 40 IU twice a day, adjunctive to antipsychotics, mean (SD)): 73.6 (13.6)**
CGI-I Cohen's d [4]: [0.74]
PANSS Negative Cohen's d [4]: [0.50]
PANSS Total Cohen's d [4]: [0.43]
PANSS Total Cohen's d ([4]; listed as oxytocin): 0.43
CGI-I Cohen's d ([4]; listed as oxytocin): 0.74
PANSS Negative Cohen's d ([4]; listed as oxytocin): 0.50
CGI-I score [4, 10]: 3.07 (0.70)**
PANSS Gen. Psy. score [4, 10]: 34.8 (6.9)
PANSS Negative score [4, 10]: 18.5 (4.5)*
PANSS Positive score [4, 10]: 19.9 (5.2)**
PANSS general psychopathology subscale, oxytocin versus placebo ([4]; any time point): not significantly different
PANSS-total difference oxytocin versus placebo ([4]; baseline): 0.60
PANSS-total scores, oxytocin versus placebo ([4]; endpoint (week 3) visit, p<0.001): significantly lower
PANSS-total difference oxytocin versus placebo ([4]; endpoint (week 3), p<0.001): 5.46
PANSS-total difference oxytocin versus placebo ([4]; week 1): 0.60
PANSS-total difference oxytocin versus placebo ([4]; week 2): 1.20
CGI-I, oxytocin versus placebo ([4]; week 3, P<0.001): significantly lower
PANSS positive subscale scores, oxytocin versus placebo ([4]; week 3, P=0.006): significantly lower
PANSS negative subscale scores, oxytocin versus placebo ([4]; week 3, p=0.023): significantly lower
rates of reported adverse effects, oxytocin compared to placebo ([5]; 3 weeks each treatment): no significant differences
serious adverse events reported during the study ([5]; 3 weeks intranasal oxytocin twice daily): no serious adverse events
Dizzy or lightheaded, subjects reporting [5, 11]: 26.7%
Dyspepsia or nausea, subjects reporting [5, 11]: 26.7%
Headache, subjects reporting [5, 11]: 26.7%
Lethargy, subjects reporting [5, 11]: 0.0%
Nasal Irritation, subjects reporting [5, 11]: 26.7%
Sleep impairment, subjects reporting [5, 11]: 33.3%
tolerability ([5]; given twice daily for three weeks): well-tolerated
